In this assay the test system is Candida albicans ATCC 10231. Description: MIC/CFM by microdilution (CLSI M27-A2). In kind it is cell-based. To be noted: Candida albicans, ATCC10231; for MIC: read-out: MIC. For orientation: Dilution methods test growth across graded concentrations, often in twofold steps.

Converted amounts (≈) assume the structure as drawn. Like-named read-outs stand apart in the source and are kept apart here.

Take `Clc1ccc(COC(Cn2ccnc2)c2ccc(Cl)cc2Cl)c(Cl)c1` (stereo not drawn) [Miconazol]: the MIC (usually the least concentration at which growth counts as inhibited) is, setting by setting: (Table 12, C. albicans ATCC 10231, 48 h, 35° C.) 4 µg/mL (≈ 9.61 µM); (Table 14, C. Albicans ATCC 10231) less than 0.5 µg/mL. For the same compound, under “Table 14, C. Albicans ATCC 10231, read-out: CFM (Minimum Fungicidal Concentration)”, the MFC was found to be 1 µg/mL (≈ 2.4 µM).

(Values after patent US20150126465A1, “PROCESS FOR PRODUCING DERIVATIVES OF PYROSTEGIA VENUSTA, DERIVATIVES OF PYROSTEGIA VENUSTA, PHARMACEUTICAL COMPOSITIONS AND ITS USES” (priority 2011, published 2015).)
